Measurements: US7087623B2, “Thiazole and other heterocyclic ligands for mammalian dopamine, muscarinic and serotonin receptors and transporters, and methods of use thereof” (Sepracor Inc., priority 2001, dated 2006)
Read-outs that look alike come from different tables or passages of the source.

Tests used:
[1] = target: T1, human serotonin 5-HT2A receptor (Homo sapiens, UniProt P28223); experiment: Radioligand binding assay, human 5-HT2A receptors ([3H]Ketanserin)
T1 construct: expressed in transfected cells; host or cells: CHO-K1
T1 sequence (P28223 whole entry): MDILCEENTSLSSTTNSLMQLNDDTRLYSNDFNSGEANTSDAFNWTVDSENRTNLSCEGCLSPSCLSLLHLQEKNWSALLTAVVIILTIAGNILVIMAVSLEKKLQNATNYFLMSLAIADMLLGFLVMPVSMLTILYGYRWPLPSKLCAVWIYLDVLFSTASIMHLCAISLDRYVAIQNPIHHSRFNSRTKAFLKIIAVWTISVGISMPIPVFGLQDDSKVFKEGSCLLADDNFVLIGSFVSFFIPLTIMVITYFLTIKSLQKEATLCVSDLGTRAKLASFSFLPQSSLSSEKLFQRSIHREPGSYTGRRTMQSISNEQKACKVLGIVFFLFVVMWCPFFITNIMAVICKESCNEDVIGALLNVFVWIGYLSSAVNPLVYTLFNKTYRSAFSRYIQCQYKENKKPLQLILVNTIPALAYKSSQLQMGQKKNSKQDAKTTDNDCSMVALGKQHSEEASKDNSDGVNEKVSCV
Protocol: (§1) The human 5-HT2a and 5-HT2b screens were conducted according to Bonhaus, D. W. et al. Br. J. Pharmacol. 1995, 115, 622. The human 5-HT2c screen was conducted according to Wolf, W. A. et al. J. Neurochem. 1997, 69, 1449. The human 5-HT6 screen was conducted according to Monsma, F. J. et al. Mol. Pharmacol. 1993, 43, 320.
CHO-K1 cells stably transfected with a plasmid encoding the human serotonin 5-HT2A receptor were used to prepare membranes in modified Tris-HCl pH 7.7 buffer using standard techniques. […] Non-specific binding was estimated in the presence of 1 μM mianserin. […] See Bonhaus, D. W. et al. “The pharmacology and distribution of human 5-hydroxytryptamine2B (5-HT2B) receptor gene products: comparison with 5-HT2A and 5-HT2C receptors” Brit. J. Pharmacol. 115: 622–628, 1995; and Saucier, C and Albert, P. R. “Identification of an endogenous 5-hydroxytryptamine2A receptor in NIH-3T3 cells: agonist-induced down-regulation involves decreases in receptor RNA and number” J. Neurochem. 68: 1998–2011, 1997.
(§2) The human 5-HT2a and 5-HT2b screens were conducted according to Bonhaus, D. W. et al. Br. J. Pharmacol. 1995, 115, 622. The human […], W. A. et al. J. Neurochem. 1997, 69, 1449. The human 5-HT6 screen was conducted according to Monsama, F. J. et al. Mol. Pharmacol. 1993, 43, 320. The assay to human D3 receptors was conducted according to Sokoloff, P. et al. Nature 1990, 347;146. The human dopamine transporter assay was conducted according to Gu, H. et. al. J. Biol. Chem. 1994, 269 (10);7124; and Giros, B. et al. Trends. Pharmacol. Sci. 1993, 14: 43. The human muscarinic M1–M4 screens were conducted according to Buckley N. J. et al. Mol. Pharmacol. 1989, 35:469.

[2] = target: T2, human serotonin 5-HT2B receptor (Homo sapiens, UniProt P41595); experiment: Radioligand binding assay, human 5-HT2B receptors ([3H]LSD)
T2 construct: expressed in transfected cells; host or cells: CHO-K1
T2 sequence (P41595 whole entry): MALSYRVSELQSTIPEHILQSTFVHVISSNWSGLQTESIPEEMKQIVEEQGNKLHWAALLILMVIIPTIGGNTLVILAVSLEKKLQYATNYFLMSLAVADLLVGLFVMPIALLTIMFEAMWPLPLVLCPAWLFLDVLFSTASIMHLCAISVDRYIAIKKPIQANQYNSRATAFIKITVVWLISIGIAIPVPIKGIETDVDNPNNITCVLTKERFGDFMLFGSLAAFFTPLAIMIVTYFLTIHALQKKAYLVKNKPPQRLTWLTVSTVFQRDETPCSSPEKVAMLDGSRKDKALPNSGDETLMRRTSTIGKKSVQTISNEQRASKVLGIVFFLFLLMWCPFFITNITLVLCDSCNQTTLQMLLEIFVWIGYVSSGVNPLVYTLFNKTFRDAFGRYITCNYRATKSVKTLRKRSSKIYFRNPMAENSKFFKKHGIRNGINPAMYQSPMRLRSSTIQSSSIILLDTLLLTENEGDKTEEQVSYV
Protocol: This assay measures binding of [^3H]LSD to human serotonin 5-HT2B receptors. CHO-K1 cells stably transfected with a plasmid encoding the human serotonin 5-HT2B receptor were used to prepare membranes in modified Tris-HCl pH 7.4 buffer using standard techniques. […] Non-specific binding was estimated in the presence of 10 μM serotonin. Membranes were filtered and washed 3 times and the filters were counted to determine [^3H]LSD specifically bound. See Bonhaus, D. W. et al. “The pharmacology and distribution of human 5-hydroxytryptamine2B (5-HT2B) receptor gene products: comparison with 5-HT2A and 5-HT2C receptors” Brit.
The human 5-HT2b screen was conducted according to Wolf, W. A. et al. J. Neurochem.

[3] = target: T3, human serotonin 5-HT2C receptor (Homo sapiens, UniProt P28335); experiment: Radioligand binding assay, human 5-HT2C receptors ([3H]Mesulergine)
T3 construct: expressed in transfected cells; host or cells: CHO-K1
T3 sequence (P28335 33-458): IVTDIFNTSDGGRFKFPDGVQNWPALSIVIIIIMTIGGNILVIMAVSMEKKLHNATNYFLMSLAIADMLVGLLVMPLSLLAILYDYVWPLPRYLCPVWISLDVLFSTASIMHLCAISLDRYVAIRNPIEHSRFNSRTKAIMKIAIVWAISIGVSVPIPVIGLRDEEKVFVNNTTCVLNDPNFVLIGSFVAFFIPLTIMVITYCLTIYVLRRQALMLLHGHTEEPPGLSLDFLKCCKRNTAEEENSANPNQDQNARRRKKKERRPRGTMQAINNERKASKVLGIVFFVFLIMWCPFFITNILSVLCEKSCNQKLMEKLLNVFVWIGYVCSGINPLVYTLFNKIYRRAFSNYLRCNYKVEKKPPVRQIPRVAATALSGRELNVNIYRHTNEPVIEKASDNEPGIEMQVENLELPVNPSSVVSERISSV
Protocol: as §1
CHO-K1 cells stably transfected with a plasmid encoding the human serotonin 5-HT2C receptor were used to prepare membranes in modified Tris-HCl pH 7.7 buffer using standard techniques. […] Non-specific binding was estimated in the presence of 1 μM mianserin. […] See Wolf, W. A. and Schutz, J. S. “The serotonin 5-HT2C receptor is a prominent serotonin receptor in basal ganglia: evidence from functional studies on serotonin-mediated phosphoinositide hydrolysis” J. Neurochem. 69: 1449–1458, 1997.
as §2

[4] = target: T4, human serotonin 5-HT6 receptor (Homo sapiens, UniProt P50406); experiment: Radioligand binding assay, human 5-HT6 receptors ([3H]LSD)
T4 construct: expressed in transfected cells; host or cells: HeLa/E6-7
T4 sequence (P50406 whole entry): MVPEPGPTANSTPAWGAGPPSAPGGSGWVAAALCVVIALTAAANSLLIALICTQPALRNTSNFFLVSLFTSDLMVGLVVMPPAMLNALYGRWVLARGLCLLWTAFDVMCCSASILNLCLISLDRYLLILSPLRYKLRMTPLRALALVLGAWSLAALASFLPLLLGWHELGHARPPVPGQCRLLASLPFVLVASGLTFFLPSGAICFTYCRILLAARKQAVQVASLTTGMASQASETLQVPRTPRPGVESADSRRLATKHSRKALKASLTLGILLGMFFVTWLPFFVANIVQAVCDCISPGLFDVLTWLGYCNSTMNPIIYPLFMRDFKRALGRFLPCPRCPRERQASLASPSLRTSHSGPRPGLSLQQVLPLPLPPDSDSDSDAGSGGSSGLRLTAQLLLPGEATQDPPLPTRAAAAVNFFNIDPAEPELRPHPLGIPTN
Protocol: as §1
This assay measures binding of [^3H]LSD (lysergic acid diethylamide) to human serotonin 5-HT6 receptors. HeLa/E6–7 cells stably transfected with a plasmid encoding the human serotonin 5-HT6 receptor were used to prepare membranes in modified Tris-HCl pH 7.4 buffer using standard techniques. A 30 μg aliquot of membrane was incubated with 1.5 nM [^3H]LSD for 120 minutes at 37° C. Non-specific binding was estimated in the presence of 5 μM 5-HT. Membranes were filtered and washed 3 times and the filters were counted to determine [^3H]LSD specifically bound. See Monsma, Jr., F. J. et al. “Cloning and expression of a novel serotonin receptor with high affinity for tricyclic psychotropic drugs” Mol. Pharmacol. 43: 320–327, 1993.
as §2

[5] = target: T5, human dopamine D3 receptor (Homo sapiens, UniProt P35462); experiment: Radioligand binding assay, human dopamine D3 receptors ([3H]Spiperone)
T5 construct: expressed in transfected cells; host or cells: CHO
T5 sequence (P35462 whole entry): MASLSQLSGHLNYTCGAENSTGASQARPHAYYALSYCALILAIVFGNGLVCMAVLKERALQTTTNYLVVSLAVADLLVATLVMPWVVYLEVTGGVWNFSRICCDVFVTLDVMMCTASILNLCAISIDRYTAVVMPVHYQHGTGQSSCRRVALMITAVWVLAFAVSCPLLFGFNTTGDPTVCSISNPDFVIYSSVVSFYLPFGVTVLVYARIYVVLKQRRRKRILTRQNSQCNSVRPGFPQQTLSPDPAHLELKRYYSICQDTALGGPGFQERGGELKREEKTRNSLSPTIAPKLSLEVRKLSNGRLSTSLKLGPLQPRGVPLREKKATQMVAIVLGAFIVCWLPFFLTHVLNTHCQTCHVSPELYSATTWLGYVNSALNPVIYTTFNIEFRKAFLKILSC
Protocol: The assay for binding to human D3 receptors was conducted according to Sokoloff, P. et al. Nature 1990, 347, 146.
CHO cells stably transfected with a plasmid encoding the human dopamine D3 receptor were used to prepare membranes in modified Tris-HCl pH 7.4 buffer using standard techniques. […] Non-specific binding was estimated in the presence of 25 μM S-(−)-sulpiride. […] See Sokoloff, P. et al. “Molecular cloning and characterization of a novel dopamine receptor (D3) as a target for neuroleptics” Nature 347: 146–151, 1990.
as §2

[6] = human 5-HT2a, Example 16 table, read-out: IC50 (nM) 5-HT2a
[7] = human 5-HT2b, Example 16 table, read-out: IC50 (nM) 5-HT2b
[8] = human 5-HT2c, Example 16 table, read-out: IC50 (nM) 5-HT2c
[9] = human 5-HT6, Example 16 table, read-out: IC50 (nM) 5-HT6
[10] = Example 20 table, read-out: IC50 (nM) Against Human D3 Receptors
[11] = human, Example 100 table, read-out: IC50 (nM) 5-HT2A
[12] = human, Example 100 table, read-out: IC50 (nM) 5-HT2B
[13] = human, Example 100 table, read-out: IC50 (nM) 5-HT2C
[14] = human, Example 100 table, read-out: IC50 (nM) 5-HT6
[15] = human, Example 100 table, read-out: IC50 (nM) D3

CC(C)N1CCN(c2nc(C3(c4ccc(Cl)cc4)CCCCC3)cs2)CC1 [Compound 78]
IC50 [1, 6]: > 1000 nM | IC50 [2, 7]: < 1000 nM | IC50 [3, 8]: > 1000 nM | IC50 [4, 9]: > 1000 nM | IC50 [5, 10]: < 1000 nM

CN1CCN(c2nc(C3(c4ccc(Cl)cc4)CCCCC3)cs2)CC1 [Compound 34]
IC50 [1, 6]: > 1000 nM | IC50 [2, 7]: < 100 nM | IC50 [3, 8]: < 100 nM | IC50 [4, 9]: < 1000 nM | IC50 [5, 10]: < 1000 nM

CN1CCN(c2nc(C3(c4ccc(OC(F)(F)F)cc4)CCOCC3)cs2)CC1 [Compound 55]
IC50 [1, 6]: < 1000 nM | IC50 [2, 7]: > 1000 nM | IC50 [3, 8]: < 1000 nM | IC50 [4, 9]: > 1000 nM | IC50 [5, 10]: < 1000 nM

Clc1ccc(C2(c3nc(N4CCNCC4)sc3Cl)CCOCC2)cc1 [Compound 39]
IC50 [1, 6]: < 1000 nM | IC50 [2, 7]: < 1000 nM | IC50 [3, 8]: < 1000 nM | IC50 [4, 9]: < 1000 nM | IC50 [5, 10]: > 1000 nM

Clc1ccc(C2(c3csc(C4CCNCC4)n3)CCC2)cc1 [Compound 30, 4-{4-[1-(4-chlorophenyl)cyclobutyl]thiazol-2-yl}-piperidine]
IC50 [1, 6]: < 1000 nM | IC50 [2, 7]: < 1000 nM | IC50 [3, 8]: < 1000 nM | IC50 [4, 9]: < 1000 nM | IC50 [5, 10]: > 1000 nM

Clc1cccc(C2(c3csc(C4CCCNC4)n3)CCOCC2)c1 (stereo not drawn) [Compound 38]
IC50 [1, 6]: > 1000 nM | IC50 [2, 7]: > 1000 nM | IC50 [3, 8]: > 1000 nM | IC50 [4, 9]: < 1000 nM | IC50 [5, 10]: > 1000 nM

CN1CCN(c2nc(C3(c4ccc(F)cc4)CCCCC3)cs2)CC1 [Compound 81]
IC50 [1, 6]: > 1000 nM | IC50 [2, 7]: < 100 nM | IC50 [3, 8]: < 1000 nM | IC50 [4, 9]: < 1000 nM | IC50 [5, 10]: < 1000 nM

CN1CCC(c2nc(C3(c4ccc(Cl)cc4)CCC3)cs2)CC1 [Compound 31]
IC50 [1, 6]: > 1000 nM | IC50 [2, 7]: < 1000 nM | IC50 [3, 8]: < 1000 nM | IC50 [4, 9]: < 1000 nM | IC50 [5, 10]: < 1000 nM

CN1CCN(c2nc(Cc3csc4ccc(Cl)cc34)cs2)CC1 [Compound 33]
IC50 [1, 6]: < 1000 nM | IC50 [2, 7]: < 10 nM | IC50 [3, 8]: < 100 nM | IC50 [4, 9]: < 1000 nM | IC50 [5, 10]: < 1000 nM

CN1CCCN(c2nc(C3(c4ccccc4F)CCCC3)cs2)CC1 [Compound 139]
IC50 [1, 11]: < 1000 nM | IC50 [2, 12]: < 100 nM | IC50 [3, 13]: < 100 nM | IC50 [4, 14]: < 100 nM | IC50 [5, 15]: < 1000 nM

CC(C)N1CCN(c2nc(C3(c4ccc(F)cc4)CCCCC3)cs2)CC1 [Compound 80]
IC50 [1, 6]: > 1000 nM | IC50 [2, 7]: < 1000 nM | IC50 [3, 8]: < 1000 nM | IC50 [4, 9]: > 1000 nM | IC50 [5, 10]: < 1000 nM

COc1ccc(C2(c3csc(N4CCN(C)CC4)n3)CCOCC2)cc1 [Compound 51]
IC50 [1, 6]: > 1000 nM | IC50 [2, 7]: > 1000 nM | IC50 [3, 8]: > 1000 nM | IC50 [4, 9]: < 1000 nM | IC50 [5, 10]: > 1000 nM

Clc1cccc(C2(c3csc(C4CCNCC4)n3)CCOCC2)c1 [Compound 68]
IC50 [1, 6]: > 1000 nM | IC50 [2, 7]: > 1000 nM | IC50 [3, 8]: > 1000 nM | IC50 [4, 9]: < 1000 nM | IC50 [5, 10]: > 1000 nM

CN1CCN(c2nc(C3(c4ccc(F)cc4)CCOCC3)cs2)CC1 [Compound 47]
IC50 ([1]; IC50 (nM) 5-HT2a, human 5-HT2a, Example 16 table): > 1000 nM | IC50 [2]: > 1000 nM | IC50 ([3]; IC50 (nM) 5-HT2c, human 5-HT2c, Example 16 table): > 1000 nM | IC50 ([4]; IC50 (nM) 5-HT6, human 5-HT6, Example 16 table): < 1000 nM | IC50 ([5]; IC50 (nM) Against Human D3 Receptors, Example 20 table): > 1000 nM

Clc1ccc(C2(c3csc(NCCCN4CCOCC4)n3)CCC2)cc1 [Compound 21, {4-[1-(4-chlorophenyl)-cyclobutyl]thiazol-2-yl}-(3-morpholin-4-yl-propyl)amine]
IC50 [1, 6]: > 1000 nM | IC50 [2, 7]: < 1000 nM | IC50 [3, 8]: < 1000 nM | IC50 [4, 9]: > 1000 nM | IC50 [5, 10]: > 1000 nM

CN1CCC(c2nc(C3(c4cccc(Cl)c4)CCOCC3)cs2)CC1 [Compound 69]
IC50 [1, 6]: > 1000 nM | IC50 [2, 7]: > 1000 nM | IC50 [3, 8]: > 1000 nM | IC50 [4, 9]: < 1000 nM | IC50 [5, 10]: > 1000 nM

COc1cccc(C2(c3csc(N4CCN(C)CC4)n3)CCOCC2)c1 [Compound 67]
IC50 [1, 11]: > 1000 nM | IC50 [2, 12]: > 1000 nM | IC50 [3, 13]: > 1000 nM | IC50 [4, 14]: < 1000 nM | IC50 [5, 15]: > 1000 nM

CN1CCN(c2nc(C3(c4ccc(C(F)(F)F)cc4)CCOCC3)cs2)CC1 [Compound 43]
IC50 [1, 6]: > 1000 nM | IC50 [2, 7]: > 1000 nM | IC50 [3, 8]: > 1000 nM | IC50 [4, 9]: < 1000 nM | IC50 [5, 10]: < 1000 nM
